Assay results as given in US20240252677A1, “ONE-COMPONENT DELIVERY SYSTEM FOR NUCLEIC ACIDS” (The Trustees of the University of Pennsylvania, priority 2021, published 2024).

Legend:
[1] = DLS size of dendrimersomes assembled from glycerol-JDs in water at different concentrations; format: physicochemical; conditions: for Dh (nm): size distribution by intensity
Description: Assembly of all eight glycerol-JDs was performed by injection of their ethanol solution (50 μL) into 1 mL of Milli-Q water. The size distribution and structure of resulting DSs were analyzed by DLS (FIG. 84) and cryo-TEM. […] In a certain concentration range the size of DSs increased with the concentration of JDs injected in water or buffer. […] The dimensions of the assemblies were identical when the concentrations of the JDs in water were identical. Sizes of assemblies from mixtures of 1R and 1S in different ratios (1:3, 1:1 and 3:1), were also identical (FIG. 84). […] With the exception of the rotation of polarized light, the physical properties of enantiomers and their racemic mixtures must be identical.
Dynamic light scattering (DLS). Hydrodynamic diameters (Dh) of the self-assemblies of dendrimer molecules and their size distributions were measured on a Malvern Instruments particle sizer (Zetasizer® Nano S, Malvern Instruments, UK) equipped with 4 mW He—Ne laser (633 nm) and avalanche photodiode positioned at […] to the beam and temperature controlled cuvette holder. Experiments were performed at 25° C. in triplicate. The distribution of radius was intensity.

[2] = pKa measurements of individual IAJD molecules by titration; format: physicochemical; conditions: individual IAJD molecule; for Avg pKa: average of pKa 1-3; for pKa 1: measurement 1; for pKa 2: measurement 2; for pKa: ethanol saturated with NaCl, titrated with 0.1 M aqueous HCl, Table 15
Description: pKa measurements of individual IAJD Molecules was performed as follows. IAJD Molecules were first dissolved in ethanol (Sat. with NaCl) at a concentration of 1.5 mg/mL and the solution volume was 3 mL.
Then 0.1 M HCl solution was added to the above ethanol solution with an increment of 7.5 μL. The resulting pH after each addition of HCl solution was measured by an Thermo Scientific Orion Star A121 meter with Thermo Scientific Orion 8220BNWP pH probe. pKa was determined using the half equivalence point titration.

CCCCCCCCCCCCOc1cc(OCCCCCCCCCCCC)cc(C(=O)OCC(COC(=O)c2cc(OCCCCCCCCCCCC)cc(OCCCCCCCCCCCC)c2)OC(=O)C(C)(COC(=O)c2cc(OCCOCCOCCOC)c(OCCOCCOCCOC)c(OCCOCCOCCOC)c2)COC(=O)c2cc(OCCOCCOCCOC)c(OCCOCCOCCOC)c(OCCOCCOCCOC)c2)c1 [Compound 3, (3,5)-12G1-GC-(achiral)-BMPA-(3,4,5)-3EO-G2]
PDI ([1]; JD 0.025 mg·mL−1 in water): 0.272 | Dh (nm) ([1]; JD 0.025 mg·mL−1 in water): 72 nm | PDI ([1]; JD 0.05 mg·mL−1 in water): 0.241 | Dh (nm) ([1]; JD 0.05 mg·mL−1 in water): 97 nm | PDI ([1]; JD 0.1 mg·mL−1 in water): 0.183 | Dh (nm) ([1]; JD 0.1 mg·mL−1 in water): 123 nm | PDI ([1]; JD 0.25 mg·mL−1 in water): 0.153 | Dh (nm) ([1]; JD 0.25 mg·mL−1 in water): 144 nm | PDI ([1]; JD 0.5 mg·mL−1 in water): 0.152 | Dh (nm) ([1]; JD 0.5 mg·mL−1 in water): 162 nm | PDI ([1]; JD 0.75 mg·mL−1 in water): 0.236 | Dh (nm) ([1]; JD 0.75 mg·mL−1 in water): 224 nm | PDI ([1]; JD 1.0 mg·mL−1 in water): 0.233 | Dh (nm) ([1]; JD 1.0 mg·mL−1 in water): 266 nm

CCCCCCCCCCCCOc1cc(OCCCCCCCCCCCC)cc(C(=O)OCC(C)(COC(=O)c2cc(OCCCCCCCCCCCC)cc(OCCCCCCCCCCCC)c2)C(=O)OC(COC(=O)c2cc(OCCOCCOCCOC)c(OCCOCCOCCOC)c(OCCOCCOCCOC)c2)COC(=O)c2cc(OCCOCCOCCOC)c(OCCOCCOCCOC)c(OCCOCCOCCOC)c2)c1 [Compound 4, (3,5)-12G2-BMPA-GC-(achiral)-(3,4,5)-3EO-G1]
PDI ([1]; JD 0.025 mg·mL−1 in water): 0.391 | Dh (nm) ([1]; JD 0.025 mg·mL−1 in water): 100 nm | PDI ([1]; JD 0.05 mg·mL−1 in water): 0.266 | Dh (nm) ([1]; JD 0.05 mg·mL−1 in water): 102 nm | PDI ([1]; JD 0.1 mg·mL−1 in water): 0.136 | Dh (nm) ([1]; JD 0.1 mg·mL−1 in water): 119 nm | PDI ([1]; JD 0.25 mg·mL−1 in water): 0.180 | Dh (nm) ([1]; JD 0.25 mg·mL−1 in water): 132 nm | PDI ([1]; JD 0.5 mg·mL−1 in water): 0.183 | Dh (nm) ([1]; JD 0.5 mg·mL−1 in water): 166 nm | PDI ([1]; JD 0.75 mg·mL−1 in water): 0.233 | Dh (nm) ([1]; JD 0.75 mg·mL−1 in water): 210 nm | PDI ([1]; JD 1.0 mg·mL−1 in water): 0.291 | Dh (nm) ([1]; JD 1.0 mg·mL−1 in water): 284 nm

CCCCCCCCCCCCOc1cc(CNC(=O)c2cc(OCCOCCOCCOC)c(OCCOCCOCCOC(=O)CCCN(C)C)c(OCCOCCOCCOC)c2)cc(OCCCCCCCCCCCC)c1 [IAJD 2]
Avg pKa [2]: 6.20 | pKa 1 ([2]; titration): 6.20

CCCCCCCCCCCCOc1cc(CNC(=O)c2cc(OCCOCCOCCOC(=O)CCCN(C)C)c(OCCOCCOCCOC)c(OCCOCCOCCOC(=O)CCCN(C)C)c2)cc(OCCCCCCCCCCCC)c1 [IAJD 4]
Avg pKa [2]: 6.43 | pKa 1 ([2]; titration): 6.43

CCCCCCCCCCCCOc1cc(CNC(=O)c2cc(OCCOCCOCCOC(=O)CCCN(C)C)c(OCCOCCOCCOCc3ccccc3)c(OCCOCCOCCOC(=O)CCCN(C)C)c2)cc(OCCCCCCCCCCCC)c1 [IAJD 9]
Avg pKa [2]: 6.56 | pKa 1 ([2]; titration): 6.52 | pKa 2 ([2]; titration): 6.52 | pKa 3 ([2]; titration, measurement 3): 6.64

CCCCCCCCCCCCOc1cc(OCCCCCCCCCCCC)cc(C(=O)OCC(COC(=O)c2cc(OCCCCCCCCCCCC)cc(OCCCCCCCCCCCC)c2)(COC(=O)c2cc(OCCOCCOCCOC)c(OCCOCCOCCOC)c(OCCOCCOCCOC(=O)CCCN(C)C)c2)NC(=O)c2cc(OCCOCCOCCOC)c(OCCOCCOCCOC)c(OCCOCCOCCOC)c2)c1 [IAJD 38]
Avg pKa [2]: 6.38 | pKa 1 ([2]; titration): 6.43 | pKa 2 ([2]; titration): 6.32

CCCCCCCCCCCCOc1cc(OCCCCCCCCCCCC)cc(C(=O)OCC(COC(=O)c2cc(OCCCCCCCCCCCC)cc(OCCCCCCCCCCCC)c2)(COC(=O)c2cc(OCCOCCOCCOC(=O)CCCN(C)C)c(OCCOCCOCCOC)c(OCCOCCOCCOC(=O)CCCN(C)C)c2)NC(=O)c2cc(OCCOCCOCCOC)c(OCCOCCOCCOC)c(OCCOCCOCCOC)c2)c1 [IAJD 41]
Avg pKa [2]: 6.36 | pKa 1 ([2]; titration): 6.38 | pKa 2 ([2]; titration): 6.34

CCCCCCCCCCCCOc1cc(OCCCCCCCCCCCC)cc(C(=O)OCC(COC(=O)c2cc(OCCCCCCCCCCCC)cc(OCCCCCCCCCCCC)c2)(COC(=O)c2cc(OCCOCCOCCOC(=O)CCCN(C)C)c(OCCOCCOCCOC(=O)CCCN(C)C)c(OCCOCCOCCOC(=O)CCCN(C)C)c2)NC(=O)c2cc(OCCOCCOCCOC)c(OCCOCCOCCOC)c(OCCOCCOCCOC)c2)c1 [IAJD 42]
Avg pKa [2]: 6.06 | pKa 1 ([2]; titration): 6.06

CCCCCCCCCCCCOc1cc(COC(=O)CCCN(C)C)cc(OCCCCCCCCCCCC)c1 [IAJD 64, 3,5-Bis(dodecyloxy)benzyl 4-(dimethylamino)butanoate]
pKa ([2]; titration): 7.06

CCCCCCCCCCCCOc1cc(COC(=O)CCCN2CCN(C)CC2)cc(OCCCCCCCCCCCC)c1 [IAJD 66, 3,5-Bis(dodecyloxy)benzyl 4-(4-methylpiperazin-1-yl)butanoate]
pKa ([2]; titration): 6.37

CCCCCCCCCCCCOc1cc(CNC(=O)CCCN2CCN(C)CC2)cc(OCCCCCCCCCCCC)c1 [IAJD 70, N-(3,5-bis(dodecyloxy)benzyl)-4-(4-methylpiperazin-1-yl)butanamide]
pKa ([2]; titration): 6.44
